From paper PMC11763264, “Antibacterial and Antifungal Activities of Linear and Cyclic Peptides Containing Arginine, Tryptophan, and Diphenylalanine” (Antibiotics, 2025)
≈ marks a conversion by molar mass, not a printed value. Non-standard residues stand in square brackets, D forms with d. Residues, ends and D or L forms follow the SMILES beside them. Dip = N[C@H](C(=O)O)C(c1ccccc1)c1ccccc1

Assays:
Test in all cases: microbe, parasite or virus in culture
E. faecalis (ATCC 29212) = assay type: cell-based, Enterococcus faecalis; conditions: ATCC 29212, 24 h
Method: (§1) The antibacterial activity of all ten synthesized linear and cyclic peptides was evaluated against MRSA (ATCC BAA-1556), S. aureus (ATCC 29213), E. faecium (ATCC 700221), S. pneumoniae (ATCC 51938), E. faecalis (ATCC 29212), B. subtilis (ATCC-6633), K. pneumoniae (ATCC BAA-1705), P. aeruginosa (ATCC 27883), and E. coli (ATCC 25922). Meropenem and daptomycin were used as positive controls for this study. Certain peptides are marked as “NT” (not tested) against specific bacterial strains based on initial screening data. […] The MIC was determined by micro-broth dilution protocol, where the minimal concentrations were determined to be in wells with no visible bacterial growth.
(§2) All bacterial experiments were carried out in a laminar flow hood (Labconco, Kansas City, MO, USA). The bacterial strains were cultured following the guidelines set by the Clinical Laboratory Standards Institute (CLSI). Antibacterial assays were performed using a standard microtiter dilution method as described in previous studies. The minimum inhibitory concentration (MIC) refers to the lowest peptide concentration that inhibits bacterial growth in wells with no visible bacterial growth. MIC was determined by micro-broth dilution. Bacteria were cultured overnight in 6 mL of Luria Broth (LB). A stock solution of the peptide was prepared in water and DMSO, and a test compound solution with a concentration of 256 µg/mL was made in LB. Meropenem, with a solubility of 8 mg/mL, was prepared as a stock solution at 4 mg/500 µL. An aliquot of the overnight bacteria culture was diluted in normal saline (NS, 1 mL) until achieving a 0.5 McFarland turbidity (1.5 × 10^8 bacterial cell CFU/mL). A 0.5 McFarland compared solution (60 µL) was added to Mueller Hinton Broth (MH) 8940 µL to generate a 1/150 dilution. A 200 µL test compound solution was added to the first well of a 96-well plate, and the remaining wells (2–12) were filled with 100 µL of MH media using a multi-channel pipette from a sterile reservoir. A concentration of […] of the tested peptides was prepared from a stock solution of the samples for testing in Muller−Hinton broth MH media. Peptides stock solution was dissolved in 5% DMSO in water, and the final concentration of DMSO in the first well of assay plate was 2.5% DMSO/H2O and diluted across the assay plate.
(§3) A 100 µL sample from well 1 was pipetted into well 2, and the solution was mixed thoroughly by pipetting up and down. Next, 100 µL was transferred from well 2 to well 3, followed by thorough mixing. This 2-fold serial dilution process continued through well 11, with no additions made to well 12. The final 100 µL from well 11 was discarded. After completing the serial dilution, each well (1–12) contained 100 µL of solution. The bacterial culture in MH media was vortexed and transferred to a sterile reservoir, from which 100 µL was added to each well using a 12-channel pipette. (Note: The dilutions were further diluted upon adding the bacterial solution; for example, the concentration in well 1 started at […] after the addition of the bacterial culture.) The plates were incubated overnight at 37 °C for 24 h. All experiments were performed in triplicate and repeated twice, with controls consisting of bacteria in MH media and positive controls of daptomycin or meropenem.

E. faecium (ATCC 700221) = assay type: cell-based, Enterococcus faecium; conditions: ATCC 700221, 24 h
Method: as §1, §2, §3

[1] = test system: P. aeruginosa (ATCC 27883); assay type: cell-based, Pseudomonas aeruginosa; conditions: ATCC 27883, 24 h
Method: as §1, §2, §3

E. coli (ATCC 25922) = assay type: cell-based, Escherichia coli; conditions: ATCC 25922, 24 h
Method: as §1, §2, §3

B. subtilis (ATCC-6633) = assay type: cell-based, Bacillus subtilis; conditions: ATCC-6633, 24 h
Method: as §1, §2, §3

[2] = test system: K. pneumoniae (ATCC BAA-1705); assay type: cell-based, Klebsiella pneumoniae; conditions: ATCC BAA-1705, 24 h
Method: as §1, §2, §3

S. aureus (ATCC 29213) = assay type: cell-based, Staphylococcus aureus; conditions: ATCC 29213, 24 h
Method: as §1, §2, §3

[3] = test system: S. pneumoniae (ATCC 51938); assay type: cell-based, Streptococcus pneumoniae; conditions: ATCC 51938, 24 h
Method: as §1, §2, §3

C. albicans (ATCC 60193) = assay type: cell-based, Candida albicans; conditions: ATCC 60193, 24 h
Method: (§4) The antifungal activity of all ten synthesized linear and cyclic peptides was evaluated against C. albicans (ATCC 60193), C. parapsilosis (ATCC 22019), and A. fumigatus (AF-293). Fluconazole and amphotericin B were used as positive controls for this study. The MIC was determined at concentrations in wells with no visible fungal growth.
(§5) In this study, C. albicans and C. parapsilosis were cultured on Yeast Peptone Dextrose (YPD) agar containing 1% w/v yeast extract, 2% w/v peptone, 2% w/v D-glucose, and 1.5% agar. A single colony from the agar was selected and cultured in Tryptone soy broth supplemented with 0.1% D-glucose, then incubated for 24 h at 37 °C. The cells were washed twice with PBS by centrifugation at 2000 RPM for 5 min. The pellet was resuspended in 5 mL of PBS, diluted in RPMI 1640 with L-glutamine, supplemented with 2% D-glucose, and the pH adjusted using HEPES buffer. The suspension was then incubated for 50 min at 35 °C to achieve a final cell concentration of 10^6 cells/mL.
(§6) Peptide concentrations of 50, 25, 12.5, 6.25, and 3.1 μg/mL were tested in triplicate and repeated twice. Each well of a 96-well plate was inoculated with the prepared inoculum suspension, which was diluted with RPMI media to a final volume of 200 μL per well. The control well received the same inoculum without any compound. The plates were incubated for 24 h at 37 °C. Fungal and microbial growth were visually observed in the control wells, and the minimum inhibitory concentration (MIC) was determined as the lowest concentration at which no growth was detected in the wells. Amphotericin B was used as a standard antifungal drug.

MRSA (ATCC BAA-1556) = assay type: cell-based, Methicillin-Resistant Staphylococcus aureus; conditions: ATCC BAA-1556, 24 h
Method: as §1, §2, §3

[4] = test system: C. parapsilosis (ATCC 22019); assay type: cell-based, Candida parapsilosis; conditions: ATCC 22019, 24 h
Method: as §4, §5, §6

In the case of `N=C(N)NCCC[C@H](NC(=O)[C@@H](NC(=O)[C@H](CCCNC(=N)N)NC(=O)[C@@H](NC(=O)[C@H](CCCNC(=N)N)NC(=O)[C@H](Cc1c[nH]c2ccccc12)NC(=O)[C@H](CCCNC(=N)N)NC(=O)[C@H](Cc1c[nH]c2ccccc12)NC(=O)[C@H](CCCNC(=N)N)NC(=O)[C@@H](N)Cc1c[nH]c2ccccc12)C(c1ccccc1)c1ccccc1)C(c1ccccc1)c1ccccc1)C(=O)O` [((DipR)2(WR)3)] (H-WRWRWR[Dip]R[Dip]R-OH), the MIC (E. faecalis (ATCC 29212)) is reported as 6.3 µM (≈ 11.4 µg/mL), the MIC (E. faecium (ATCC 700221)) is reported as 3.1 µM (≈ 5.59 µg/mL) and the MIC [1] is reported as 12.5 µM (≈ 22.6 µg/mL). It also gave an MIC (E. coli (ATCC 25922)) of 6.3 µM (≈ 11.4 µg/mL), an MIC (B. subtilis (ATCC-6633)) of 1.6 µM (≈ 2.89 µg/mL) and an MIC [2] of 12.5 µM (≈ 22.6 µg/mL). For the same compound, the MIC (S. aureus (ATCC 29213)) was 3.1 µM (≈ 5.59 µg/mL), the MIC [3] was 0.78 µM (≈ 1.41 µg/mL) and the MIC (C. albicans (ATCC 60193)) was 3.5 µM (≈ 6.31 µg/mL). The MIC (MRSA (ATCC BAA-1556)) was 3.1 µM (≈ 5.59 µg/mL) and the MIC [4] was 6.9 µM (≈ 12.4 µg/mL).
For `N=C(N)NCCC[C@H](NC(=O)[C@@H](NC(=O)[C@H](CCCNC(=N)N)NC(=O)[C@@H](NC(=O)[C@H](CCCNC(=N)N)NC(=O)[C@@H](NC(=O)[C@H](CCCNC(=N)N)NC(=O)[C@H](Cc1c[nH]c2ccccc12)NC(=O)[C@H](CCCNC(=N)N)NC(=O)[C@@H](N)Cc1c[nH]c2ccccc12)C(c1ccccc1)c1ccccc1)C(c1ccccc1)c1ccccc1)C(c1ccccc1)c1ccccc1)C(=O)O` [((DipR)3(WR)2)] (H-WRWR[Dip]R[Dip]R[Dip]R-OH), the MIC (E. faecalis (ATCC 29212)) was 3.1 µM (≈ 5.71 µg/mL), the MIC (E. faecium (ATCC 700221)) was 3.1 µM (≈ 5.71 µg/mL) and the MIC [1] was 25 µM (≈ 46 µg/mL). For the same compound, the MIC (E. coli (ATCC 25922)) was 12.5 µM (≈ 23 µg/mL), the MIC (B. subtilis (ATCC-6633)) was 3.1 µM (≈ 5.71 µg/mL) and the MIC [2] was 25 µM (≈ 46 µg/mL). The MIC (S. aureus (ATCC 29213)) was 3.1 µM (≈ 5.71 µg/mL), the MIC [3] was 0.78 µM (≈ 1.44 µg/mL) and the MIC (C. albicans (ATCC 60193)) was 3.4 µM (≈ 6.26 µg/mL). The MIC (MRSA (ATCC BAA-1556)) was 3.1 µM (≈ 5.71 µg/mL) and the MIC [4] was 6.8 µM (≈ 12.5 µg/mL).
Work on `N=C(N)NCCC[C@H](NC(=O)[C@@H](NC(=O)[C@H](CCCNC(=N)N)NC(=O)[C@@H](NC(=O)[C@H](CCCNC(=N)N)NC(=O)[C@@H](NC(=O)[C@H](CCCNC(=N)N)NC(=O)[C@@H](NC(=O)[C@H](CCCNC(=N)N)NC(=O)[C@@H](N)Cc1c[nH]c2ccccc12)C(c1ccccc1)c1ccccc1)C(c1ccccc1)c1ccccc1)C(c1ccccc1)c1ccccc1)C(c1ccccc1)c1ccccc1)C(=O)O` [((DipR)4(WR))] (H-WR[Dip]R[Dip]R[Dip]R[Dip]R-OH) yielded an MIC (E. faecalis (ATCC 29212)) of 1.6 µM (≈ 3.01 µg/mL), an MIC (E. faecium (ATCC 700221)) of 1.6 µM (≈ 3.01 µg/mL) and an MIC [1] of 25 µM (≈ 47 µg/mL). For the same compound, the MIC (E. coli (ATCC 25922)) was 12.5 µM (≈ 23.5 µg/mL), the MIC (B. subtilis (ATCC-6633)) was 12.5 µM (≈ 23.5 µg/mL) and the MIC [2] was 25 µM (≈ 47 µg/mL). For the same compound, the MIC (S. aureus (ATCC 29213)) was 3.1 µM (≈ 5.82 µg/mL), the MIC [3] was 0.78 µM (≈ 1.47 µg/mL) and the MIC (C. albicans (ATCC 60193)) was 6.6 µM (≈ 12.4 µg/mL). It also gave an MIC (MRSA (ATCC BAA-1556)) of 3.1 µM (≈ 5.82 µg/mL) and an MIC [4] of 6.6 µM (≈ 12.4 µg/mL).
